# Test results reported in patent US20090012053A1, “Use of LXR agonists for the treatment of osteoarthritis” (Wyeth, priority 2006, published 2009).
# Test system: aggrecanase
# Experiment: Western blot of aggrecanase-generated aggrecan neoepitopes (BC3, AGEG antibodies) in culture medium of human OA cartilage explants
# Type: cell-based
# Method: FIG. 4A is a Western blot showing aggrecanase-generated aggrecan neoepitopes using BC-3 antibody, which recognizes the N-terminus on aggrecanase-generated aggrecan catabolites. Cartilage explants from two human donors with end stage OA (after joint replacement surgery) were used. Donor #259 is a patient, and donor #261 is a patient. Lanes 1, 5: vehicle. Lanes 2, 6: TO901317 (2 μM). Lanes 3, 7: IL-1β+oncostatin M (OSM) (10 ng/ml each). Lanes 4, 8: IL-1β+OSM+TO901317. FIG. 4B is a Western blot showing aggrecanase-generated aggrecan neoepitopes using AGEG antibody, which recognizes a different epitope on aggrecanase-generated aggrecan catabolites. Lanes 1, 5: vehicle. Lanes 2, 6: TO901317 (2 μM). Lanes 3, 7: IL-1β+OSM (10 ng/ml each). Lanes 4, 8: IL-1β+OSM+TO901317. Fresh cartilage from human OA donors was cut into pieces (˜10 mg/piece, ˜2×2×2 mm). The cartilage explants were randomized into 24 well plates (˜250 mg wet weight/well). Three wells of explants were included for each treatment group. The explants were cultured in 1 ml DMEM/F-12 with 10% FBS for 3 days, then the complete medium was replaced with serum-free medium. Twelve hours later, the medium was removed and fresh serum-free medium (1 ml) was added, followed by LXR agonist T0901317 treatment (2 μM). IL1β/Oncostatin M (10 ng/ml each) were added 8 hours later. The explants were then cultured in the presence or absence of LXR agonist T0901317 and IL1β/Oncostatin M for additional 20 hours. 180 μl of pooled culture medium from each treatment group was deglycosylated with chondroitinase ABC, keratanase, keratanase II in the presence of 50 mM EDTA at 37° C. for 3 hrs. The samples were then concentrated and separated in a 4-12% SDS-PAGE gel. Western analysis was performed using either mouse BC3 neoepitope antibody (1:1500), or rabbit anti-AGEG antibody (1:1000) as the primary antibody, and anti-mouse or anti-rabbit IgG antibody conjugated with […] (1:5000) as the secondary antibody. […] Treatment with T0901317 blocked the induction of BC3 and AEEG release by cytokines. In the experiment using donor #261, BC3- and AEGE-containing aggrecan fragments were released into the culture medium from untreated cartilage explants.
structure (smiles),measurement,setting,value
"O=S(=O)(c1ccccc1)N(CC(F)(F)F)c1ccc(C(O)(C(F)(F)F)C(F)(F)F)cc1 [Formula T0901317, N-(2,2,2-trifluoroethyl)-N-{4-[2,2,2-trifluoro-1-hydroxy-1-(trifluoromethyl)ethyl]phenyl}benzene sulfonamide]",cytokine-induced release of BC3 containing aggrecan fragments into the culture medium,"donor #259, 2 μM, IL1β/Oncostatin M 10 ng/ml each, FIG. 4A",blocked
same,cytokine-induced release of AGEG containing aggrecan fragments into the culture medium,"donor #259, 2 μM, IL1β/Oncostatin M 10 ng/ml each, FIG. 4B",blocked
same,cytokine-induced release of AGEG-containing fragment from the explants,"donor #261, 2 μM, IL1β/Oncostatin M 10 ng/ml each, FIG. 4B",it was blocked
same,amount of BC3-containing aggrecan fragments released into the culture medium without cytokines,"donor #261, 2 μM, no cytokine, FIG. 4A",reduced the amount of these fragments
same,amount of AGEG-containing aggrecan fragments released into the culture medium without cytokines,"donor #261, 2 μM, no cytokine, FIG. 4B",reduced the amount of these fragments
